The text below walks through data of patent US20090036422A1 (priority 2007, published 2009).

Counter-ions that a name gives are not always drawn.

The target in the first assay is T1, human orexin-2 (hOX2) receptor (Homo sapiens, UniProt O43614).
T1 construct: expressed in transfected cells
T1 sequence (O43614 1-444): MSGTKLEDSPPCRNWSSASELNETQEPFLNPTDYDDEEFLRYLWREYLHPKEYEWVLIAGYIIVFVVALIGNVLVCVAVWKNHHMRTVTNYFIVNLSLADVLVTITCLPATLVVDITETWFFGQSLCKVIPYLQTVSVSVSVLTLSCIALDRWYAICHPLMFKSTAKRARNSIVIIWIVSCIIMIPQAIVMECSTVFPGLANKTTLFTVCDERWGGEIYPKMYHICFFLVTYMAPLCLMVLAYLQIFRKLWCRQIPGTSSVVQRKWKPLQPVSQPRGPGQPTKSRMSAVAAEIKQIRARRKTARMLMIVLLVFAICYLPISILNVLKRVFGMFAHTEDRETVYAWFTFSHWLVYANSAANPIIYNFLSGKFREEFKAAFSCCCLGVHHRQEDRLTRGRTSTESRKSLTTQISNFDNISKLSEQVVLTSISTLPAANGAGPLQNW
The assay can be described thus: Intracellular Ca2+ mobilization assay (FLIPR), CHO(dHFr-) cells expressing hOX2, orexin-A at EC80 as agonist. In kind it is cell-based. The note with it: Kb=IC50/(1+[A]/EC50); CHO(dHFr-)-OX2R cells, antagonist applied 25 min before orexin-A EC80. In a few lines:
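Fluo-4-loaded CHO(dHFr−) cells stably expressing hOX2 were preincubated 25 min at 37 °C with antagonist (11 concentrations, 0.0001–10 μM), then challenged with orexin-A at its daily-determined EC80. Peak fluorescence over basal read by FLIPR; IC50 from Hill fit, Kb via Kb=IC50/(1+[A]/EC50).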
For orientation: A change in cytosolic calcium serves as a functional read-out for many receptors and channels.
With `COc1ccc(N(CCc2ccc(C(F)(F)F)cc2)C(=O)[C@@H](N)c2ccccc2OC)cc1OC` [Example 103, (S)-2-Amino-N-(3,4-dimethoxy-phenyl)-2-(2-methoxy-phenyl)-N-[2-(4-trifluoromethyl-phenyl)-ethyl]-acetamide hydrochloride], the Kb (in general, the affinity of an antagonist, worked out from how it opposes an agonist) worked out at 0.0053 µM.

Compound `Cc1ccc(N(CCc2ccc(C(F)(F)F)cc2)C(=O)Cn2c(C)nc3ccccc32)cc1C` [Example 236, N-(3,4-Dimethyl-phenyl)-2-(2-methyl-benzoimidazol-1-yl)-N-[2-(4-trifluoromethyl-phenyl)-ethyl]-acetamide] had a Kb of 0.076 µM.

Regarding `Cc1ccc(N(CCc2ccc(C(F)(F)F)cc2)C(=O)C(=O)c2ccccc2)cc1C` [Example 218, N-(3,4-Dimethyl-phenyl)-2-oxo-2-phenyl-N-[2-(4-trifluoromethyl-phenyl)-ethyl]-acetamide], the Kb was determined as 0.0555 µM.

As to `COc1ccc(N(CCc2ccc(C(F)(F)F)cc2)C(=O)C(O)c2ccc(Cl)cc2)cc1OC` (centres unmarked) [Example 30, 2-(4-chlorophenyl)-N-(3,4-dimethoxyphenyl)-2-hydroxy-N-{2-[4-(trifluoromethyl)phenyl]ethyl}acetamide], the Kb worked out at 0.0757 µM.

Compound `COc1ccccc1C(N)C(=O)N(CCc1ccc(C(F)(F)F)cc1)c1ccc2c(c1)OCO2` (centres unmarked) [Example 41] displayed a Kb of 0.0505 µM.

With `Cc1ccc(CCN(C(=O)C(NCCO)c2ccccc2)c2ccc(C)c(C)c2)cc1` (centres unmarked) [Example 106, N-(3,4-Dimethyl-phenyl)-2-(2-hydroxy-ethylamino)-2-phenyl-N-(2-p-tolyl-ethyl)-acetamide], the Kb came out at 0.0071 µM.

With `Cc1ccc(N(CCc2cccc(C(F)(F)F)c2)C(=O)[C@@H](N)c2ccccc2)cc1C` [Example 184, (S)-2-Amino-N-(3,4-dimethyl-phenyl)-2-phenyl-N-[2-(3-trifluoromethyl-phenyl)-ethyl]-acetamide hydrochloride], the Kb worked out at 0.0249 µM. This Kb is about 3.5-fold higher than that of the compound before.

Compound `CCc1ccc(N(CCc2ccc(F)cc2)C(=O)[C@@H](N)c2ccccc2)cc1` [Example 244, (S)-2-Amino-N-(4-ethyl-phenyl)-N-[2-(4-fluoro-phenyl)-ethyl]-2-phenyl-acetamide hydrochloride] gave a Kb of 0.049 µM.

`Cc1ccc(CCN(C(=O)C(NC(CO)C(C)C)c2ccccc2)c2ccc(C)c(C)c2)cc1` (centres unmarked) [Example 123, N-(3,4-Dimethyl-phenyl)-2-(1-hydroxymethyl-2-methyl-propylamino)-2-phenyl-N-(2-p-tolyl-ethyl)-acetamide] showed a Kb of 0.0727 µM.

The compound `Cc1ccc(CCN(C(=O)C(NC(C)CO)c2ccccc2)c2ccc(C)c(C)c2)cc1` (centres unmarked) [Example 122, N-(3,4-Dimethyl-phenyl)-2-(2-hydroxy-1-methyl-ethylamino)-2-phenyl-N-(2-p-tolyl-ethyl)-acetamide] had a Kb of 0.0225 µM.

In turn, `COc1ccc(N(CCc2ccc(C(F)(F)F)cc2)C(=O)C(N)c2ccccc2)cc1F` (centres unmarked) [Example 64, 2-Amino-N-(3-fluoro-4-methoxy-phenyl)-2-phenyl-N-[2-(4-trifluoromethyl-phenyl)-ethyl]-acetamide] returned a Kb of 0.0383 µM.

The compound `COc1cccc(N(CCc2ccc(C(F)(F)F)cc2)C(=O)C(N)c2ccccc2OC)c1` (centres unmarked) [Example 38, 2-Amino-2-(2-methoxy-phenyl)-N-(3-methoxy-phenyl)-N-[2-(4-trifluoromethyl-phenyl)-ethyl]-acetamide] showed a Kb of 0.0577 µM.

Consider `COc1ccc(N(CCc2ccc(C(F)(F)F)cc2)C(=O)C(N)c2ccccc2)cc1Cl` (centres unmarked) [Example 66, 2-Amino-N-(3-chloro-4-methoxy-phenyl)-2-phenyl-N-[2-(4-trifluoromethyl-phenyl)-ethyl]-acetamide], for which the Kb was 0.013 µM.

The next assay relates to rat.
Experiment: not given
To be noted: intracerebroventricular (icv) administration; cited from earlier work.
“OX-A: "orexin-A/hypocretin1 (OX-A, 33 amino acids)", hypothalamic neuropeptide; "Orexin A ... was used as agonist" (QPLPDCCRQKTCSCRLYELLHGAGNHAAGILTL; Orexin-A; UniProt O43612 34-66, looked up)”: the “reduction of total REM sleep” value was 84%.
